What was measured:
[1] = assay type: physicochemical; details: acid environment / stomach
[2] = human body; cited from earlier work

Row | SMILES | removal of bound radium [1] | rate of metabolism versus ethanol [2]
1 | O=Cc1ccc2c(c1)OCC(=O)N1CCOCCOCCN(CCOCCOCC1)C(=O)CO2 [CE] | instable in the stomach, stable in the rest of the body | 
2 | CO [Methanol] |  | substantially more slowly

— patent US5053216A, “Radioactive Jomol, its derivatives, processes for the production of these compounds, their use and product” (priority 1985, dated 1991)
